# Test results from patent US20200022967A1, “Use of 2-carboxamide cycloamino urea derivatives in the treatment of EGFR dependent diseases or diseases that have acquired resistance to agents that target EGFR family members” (Novartis AG, priority 2010, published 2020).
# Legend:
# NCI-N87 tumors = experiment: NCI-N87 xenograft in CB17 SCID mice, Compound A alone and with trastuzumab (Example 4); type: in vivo
# Experimental: Experiments were performed in female CB17 SCID mice (Fox Chase SCID®, CB17/lcr-Prkdc^scid, Charles River) approximately 7-8 weeks of age and having a body weight (BW) range of 14.7-21.2 g at treatment start. All animals were fed ad libitum water (reverse osmosis, 1 ppm CI) and NIH 31 Modified and Irradiated Lab Diet® consisting of 18.0% crude protein, 5.0% crude fat, and 5.0% crude fiber. The mice were housed on irradiated Enrich-O'cobs™ Laboratory Animal Bedding in static microisolators on a 12-hour light cycle at 21-22° C. and 40-60% humidity.
# NCI-N87 cells (obtained from the American Type Culture Collection), which are of gastric origin and ErbB2 amplified, were maintained as exponentially growing cultures in RPMI-1640 medium supplemented with 10% fetal bovine serum, 2 mM glutamine, 100 units/mL penicillin G sodium, and 100 μg/mL streptomycin sulfate. The tumor cells were cultured in tissue culture flasks in a humid incubator at 37° C., in an atmosphere of 5% CO2 and 95% air. Cells were harvested with 1× trypsin and suspended at a concentration of 5×10^7 cells/mL in cold phosphate-buffered saline with 50% Matrigel. Each mouse was injected subcutaneously in the right flank with 1×10^7 cells (0.2 mL cell suspension). Tumor volumes were measured with calipers and determined according to the formula: width^2×length/2, and tumor weight estimated with the assumption that 1 mg is equivalent to 1 mm^3 of tumor volume. Nine days after tumor implantation (on Day 1 of the study), mice with individual tumor volumes of 126-320 mm^3 were sorted into 12 groups of eight mice with a group mean tumor volume of 231-239 mm^3.
# Compound A was formulated in NMP/PEG300/Solutol HS15/deionized water (10:30:20:40% vol/vol). The Compound was fully dissolved in NMP. Then, PEG300 and liquified Solutol were added (in sequence with vortexing after addition of each reagent). Water was added prior to administration to the animals. Fresh dosing solutions were prepared weekly and stored at 4° C., protected from light.
# Treatments started 9 days post tumor cell implantation and lasted for 30 consecutive days (or until tumor volume=2000 mm^3).
# Where applicable, data is presented as mean±SEM. Statisticial and graphical analyses was performed with Prism 3.03 (GraphPad) for Windows. For all tests, the level of significance of differences was done using ANOVA, with Bartlett's test; and a post-hoc Dunnett's multiple comparison test compared the mean change for each drub-treated group to the mean for Group 1. […] The significance of differences between the median volume changes for drug-treated groups and Group 1 was analyzed post hoc with Dunn's multiple comparison test. The two-tailed statistical analyses were conducted at P=0.05. Prism summarizes test results as not significant (ns) at P>0.05, significant (symbolized by “*”) at 0.01<P≤0.05, very significant (symbolized by “**”) at 0.001<P≤0.01, and extremely significant (symbolized by “***”) at P≤0.001.
# HCC1954 = experiment: Cell proliferation in HCC1954 breast cancer model; type: cell-based
# [1] = Group 2 (8 animals): Compound A 12.5 mg/kg p.o. once daily
# [2] = Group 3 (6 animals): Compound A 25 mg/kg p.o. once daily
# [3] = Group 4 (4 animals): Compound A 50 mg/kg p.o. once daily, stopped early
smiles,measurement,setting,value
"Cc1nc(NC(=O)N2CCC[C@H]2C(N)=O)sc1-c1ccnc(C(C)(C)C(F)(F)F)c1 [Compound A, (S)-Pyrrolidine-1,2-dicarboxylic acid 2-amide 1-({4-methyl-5-[2-(2,2,2-trifluoro-1,1-dimethyl-ethyl)-pyridin-4-yl]-thiazol-2-yl}-amide)]",Regressions CR (complete regression),NCI-N87 tumors; [1],CR: 0
same,Regressions PR (partial regression),NCI-N87 tumors; [1],"PR: 0,"
same,T/C or T/T0,"NCI-N87 tumors; Group 2 (8 animals): Compound A 12.5 mg/kg p.o. once daily, vs G1 ns",46%
same,Regressions CR (complete regression),NCI-N87 tumors; [2],CR: 0
same,Regressions PR (partial regression),NCI-N87 tumors; [2],"PR: 0,"
same,T/C or T/T0,"NCI-N87 tumors; Group 3 (6 animals): Compound A 25 mg/kg p.o. once daily, vs G1 *",12%
same,Regressions CR (complete regression),NCI-N87 tumors; [3],CR: 0
same,Regressions PR (partial regression),NCI-N87 tumors; [3],"PR: 0,"
same,T/C or T/T0,"NCI-N87 tumors; Group 4 (4 animals): Compound A 50 mg/kg p.o. once daily, stopped early, vs G1 ne",81%
same,cell death,"HCC1954; HCC1954, overexpressed ErbB2",induces cell death
same,GI50,"HCC1954; HCC1954 breast cancer model, read-out: median GI50",0.687 ± 0.132 µM
